The test system of assay [1] is P. falciparum male gametocytes. Description: P. falciparum Dual Gamete Formation Assay (PfDGFA), male readout (exflagellation). The assay is classed as cell-based, Plasmodium falciparum NF54. The settings on record: for % inhibition male (individual replicates) R1: replicate R1; for % inhibition male (individual replicates) R3: replicate R3; for % inhibition male (individual replicates) R4: replicate R4; for Average inhibition male (%): average of replicates; for Activity: hit = >50% inhibition in male or female readout in at least 3 replicates, 0 = no class assigned. A digest of the protocol: (§1)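 Two sex-specific readouts come from one well: male exflagellation centres recorded by brightfield video right after activation, and female gametes scored by Cy3-anti-Pfs25 fluorescence after 24 h at 28°C.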

The test system of assay [2] is P. falciparum female gametocytes. Description: P. falciparum Dual Gamete Formation Assay (PfDGFA), female readout (Pfs25-positive female gametes). The class given is cell-based, Plasmodium falciparum NF54. The settings on record: for % inhibition female (individual replicates) R1: replicate R1; for % inhibition female (individual replicates) R3: replicate R3; for % inhibition female (individual replicates) R4: replicate R4; for Average inhibition female (%): average of replicates. A digest of the protocol: as §1

The mark [3] stands for this setting: PfDGFA at 2µM, 24h preincubation with gametocytes prior to induction of gametogenesis.
Setting [4] is: PfDGFA at 2µM, 24h preincubation.
Where [5] appears, read: 2µM, 24h preincubation with gametocytes prior to induction of gametogenesis.
The mark [6] stands for this setting: 2µM, 24h preincubation, hits selected on >50% inhibition in the male readout across replicates.
Where [7] appears, read: 2µM, 24h preincubation, hits selected on >50% inhibition in the female readout across replicates.
[8] abbreviates: PfDGFA at 2µM, 24h preincubation with gametocytes.
Where [9] appears, read: number of replicates with >50% inhibition in the male readout, 2µM.
Setting [10] is: number of replicates with >50% inhibition in the female readout, 2µM.
Where [11] appears, read: 2µM, 24h preincubation, number of replicates with >50% inhibition in the male readout.
The mark [12] stands for this setting: 2µM, 24h preincubation, number of replicates with >50% inhibition in the female readout.
The mark [13] stands for this setting: 2µM, 24h preincubation with gametocytes.

SMILES strings stand for the structures.

Take `OCc1ccc2nc3c(cc2c1)-c1cccc2cccc-3c12` [TCMDC-137756]: in assay [1] (setting [3]), the “% inhibition male (individual replicates) R1” value is -3.7%, the “% inhibition male (individual replicates) R3” value is 13.3% and the “% inhibition male (individual replicates) R4” value was 12.3%. Also, the “Average inhibition male (%)” value in assay [1] (setting [4]) came out at 6.9%. In assay [2] (setting [3]), the “% inhibition female (individual replicates) R1” value turned out to be 4.5%, the “% inhibition female (individual replicates) R3” value was -23.9% and the “% inhibition female (individual replicates) R4” value is recorded as -12.7%. The “Average inhibition female (%)” value in assay [2] (setting [4]) was -11.0%.
On to `COc1ccc(O)c(Cc2cnc3nc(N)[nH]c(=O)c3c2C)c1.CS(=O)(=O)O` [TCMDC-137766], for which, in assay [1] (setting [3]), the “% inhibition male (individual replicates) R1” value is 13.3%, the “% inhibition male (individual replicates) R3” value is -7.3% and the “% inhibition male (individual replicates) R4” value is listed as -9.1%. In addition, in assay [1] (setting [4]), the “Average inhibition male (%)” value is recorded as 1.5%. Besides, in assay [2] (setting [3]), the “% inhibition female (individual replicates) R1” value stood at 3.3%, the “% inhibition female (individual replicates) R3” value was -13.8% and the “% inhibition female (individual replicates) R4” value is on record as -13.6%. Besides, the “Average inhibition female (%)” value in assay [2] (setting [4]) is on record as -2.6%.
On to `COc1ccccc1N1CCN(CCCCNC(=O)c2ccc(NC(=O)c3ccc(OC(F)(F)F)cc3)cc2)CC1.Cl` [TCMDC-137780], for which, in assay [1] (setting [5]), the “Average inhibition male (%)” value is on record as -3.4%, the “% inhibition male (individual replicates) R1” value was -7.9%, the “% inhibition male (individual replicates) R3” value was -14.4% and the “% inhibition male (individual replicates) R4” value came out at 10.6%. In assay [1] (setting [6]), this molecule showed a HitlevelM of 0. In assay [1] (setting [4]), this molecule displayed an Activity of 0. In assay [2] (setting [5]), the “Average inhibition female (%)” value stood at 5.4%, the “% inhibition female (individual replicates) R1” value worked out at 10.5%, the “% inhibition female (individual replicates) R3” value is reported as -10.0% and the “% inhibition female (individual replicates) R4” value worked out at 19.1%. This molecule showed a HitlevelF in assay [2] (setting [7]) of 0.
For the molecule `Cc1cc(N)nc2ccc(-c3ccc(CCN)cc3)cc12` [TCMDC-137786], in assay [1] (setting [8]), the “Average inhibition male (%)” value is reported as 75.8%, the “% inhibition male (individual replicates) R1” value is on record as 70.7% and the “% inhibition male (individual replicates) R4” value is recorded as 86.5%. The same molecule yielded a HitlevelM in assay [1] (setting [9]) of 3. Further, in assay [2] (setting [8]), the “Average inhibition female (%)” value stood at 37.0%, the “% inhibition female (individual replicates) R1” value was determined as 36.7%, the “% inhibition female (individual replicates) R3” value is on record as 37.4% and the “% inhibition female (individual replicates) R4” value was found to be 36.1%. In assay [2] (setting [10]), this molecule gave a HitlevelF of 0.
Consider `CCOc1ccc2ccccc2c1CNCCCCCCNCc1c(OCC)ccc2ccccc12.CS(=O)(=O)O` [TCMDC-137791], for which, in assay [1] (setting [8]), the “Average inhibition male (%)” value came to 87.1%, the “% inhibition male (individual replicates) R1” value was 89.3%, the “% inhibition male (individual replicates) R3” value is listed as 68.9% and the “% inhibition male (individual replicates) R4” value is reported as 93.6%. In assay [1] (setting [9]), the HitlevelM was 4. In assay [2] (setting [8]), the “Average inhibition female (%)” value is 47.4%, the “% inhibition female (individual replicates) R1” value is 37.1%, the “% inhibition female (individual replicates) R3” value turned out to be 17.2% and the “% inhibition female (individual replicates) R4” value turned out to be 66.6%. The HitlevelF in assay [2] (setting [10]) was 2.
Turning to `c1cc(Cc2ccc(Nc3c4ccccc4nc4ccccc34)cc2)cc(Nc2c3ccccc3nc3ccccc23)c1` [TCMDC-137793], in assay [1] (setting [5]), the “Average inhibition male (%)” value is reported as 2.5%, the “% inhibition male (individual replicates) R1” value was 17.2%, the “% inhibition male (individual replicates) R3” value is recorded as -11.5% and the “% inhibition male (individual replicates) R4” value is -9.8%. The same molecule returned a HitlevelM in assay [1] (setting [6]) of 0. In addition, the Activity in assay [1] (setting [4]) was found to be 0. Moreover, in assay [2] (setting [5]), the “Average inhibition female (%)” value is 14.4%, the “% inhibition female (individual replicates) R1” value stood at 13.9%, the “% inhibition female (individual replicates) R3” value turned out to be 7.5% and the “% inhibition female (individual replicates) R4” value was determined as 13.1%. This molecule showed a HitlevelF in assay [2] (setting [7]) of 0.
For `COc1cc2ccccc2c(CNCCCCCCNCc2c(OC)c(OC)cc3ccccc23)c1OC.CS(=O)(=O)O` [TCMDC-137795], in assay [1] (setting [8]), the “Average inhibition male (%)” value is 66.8%, the “% inhibition male (individual replicates) R1” value is 59.0%, the “% inhibition male (individual replicates) R3” value worked out at 36.7% and the “% inhibition male (individual replicates) R4” value worked out at 86.9%. The molecule also gave a HitlevelM in assay [1] (setting [9]) of 3. In addition, in assay [2] (setting [8]), the “Average inhibition female (%)” value is on record as 31.5%, the “% inhibition female (individual replicates) R1” value came out at 34.0%, the “% inhibition female (individual replicates) R3” value came to 23.0% and the “% inhibition female (individual replicates) R4” value amounted to 18.6%. Besides, in assay [2] (setting [10]), the HitlevelF came out at 1.
In the case of `Br.c1cc(C2=NC3CCCCC3N2)ccc1OCCCCCOc1ccc(C2=NC3CCCCC3N2)cc1` (centres unmarked) [TCMDC-137802], in assay [1] (setting [3]), the “% inhibition male (individual replicates) R1” value came out at 3.7%, the “% inhibition male (individual replicates) R3” value turned out to be 3.4% and the “% inhibition male (individual replicates) R4” value is on record as -3.8%. In assay [1] (setting [4]), the “Average inhibition male (%)” value is -1.7%. Besides, in assay [2] (setting [3]), the “% inhibition female (individual replicates) R1” value was 13.0%, the “% inhibition female (individual replicates) R3” value is -14.3% and the “% inhibition female (individual replicates) R4” value is given as -0.44%. In assay [2] (setting [4]), the “Average inhibition female (%)” value was determined as 3.6%.
With `Nc1nc(N)c2c(ccc3c2ccn3Cc2cccc(F)c2)n1` [TCMDC-137810], in assay [1] (setting [5]), the “Average inhibition male (%)” value was determined as 57.9%, the “% inhibition male (individual replicates) R1” value was determined as 71.9%, the “% inhibition male (individual replicates) R3” value was 59.3% and the “% inhibition male (individual replicates) R4” value is on record as 64.6%. In assay [1] (setting [11]), this molecule came in with a HitlevelM of 3. In assay [2] (setting [5]), the “Average inhibition female (%)” value is 73.3%, the “% inhibition female (individual replicates) R1” value amounted to 69.9%, the “% inhibition female (individual replicates) R3” value is on record as 85.4% and the “% inhibition female (individual replicates) R4” value stood at 66.6%. Besides, the HitlevelF in assay [2] (setting [12]) is 4.
For `COc1cccc(Cn2ccc3c4c(N)nc(N)nc4ccc32)c1` [TCMDC-137811], in assay [1] (setting [5]), the “Average inhibition male (%)” value is on record as 42.3%, the “% inhibition male (individual replicates) R1” value is 37.2%, the “% inhibition male (individual replicates) R3” value is on record as 47.4% and the “% inhibition male (individual replicates) R4” value is reported as 43.4%. The molecule also had a HitlevelM in assay [1] (setting [11]) of 0. In addition, in assay [2] (setting [5]), the “Average inhibition female (%)” value stood at 75.4%, the “% inhibition female (individual replicates) R1” value worked out at 72.3%, the “% inhibition female (individual replicates) R3” value was 74.8% and the “% inhibition female (individual replicates) R4” value amounted to 79.8%. For the same molecule, the HitlevelF in assay [2] (setting [12]) was 4.
`CS(=O)(=O)O.FC(F)(F)COc1ccc2ccccc2c1CNCCCCCCNCc1c(OCC(F)(F)F)ccc2ccccc12` [TCMDC-137816]: in assay [1] (setting [13]), the “Average inhibition male (%)” value came to 91.3%, the “% inhibition male (individual replicates) R1” value is on record as 97.0%, the “% inhibition male (individual replicates) R3” value turned out to be 82.6% and the “% inhibition male (individual replicates) R4” value stood at 90.9%. Besides, in assay [2] (setting [13]), the “Average inhibition female (%)” value was determined as 42.8%, the “% inhibition female (individual replicates) R1” value is 37.4%, the “% inhibition female (individual replicates) R3” value came to 26.9% and the “% inhibition female (individual replicates) R4” value stood at 39.6%.
On to `N#Cc1ccc(Cn2ccc3c4c(N)nc(N)nc4ccc32)cc1` [TCMDC-137820], for which, in assay [1] (setting [5]), the “Average inhibition male (%)” value is 57.5%, the “% inhibition male (individual replicates) R1” value was determined as 46.1%, the “% inhibition male (individual replicates) R3” value was 51.2% and the “% inhibition male (individual replicates) R4” value was 67.4%. Further, in assay [1] (setting [11]), the HitlevelM is 3. Also, in assay [2] (setting [5]), the “Average inhibition female (%)” value was 75.9%, the “% inhibition female (individual replicates) R1” value came to 77.9%, the “% inhibition female (individual replicates) R3” value was determined as 77.4% and the “% inhibition female (individual replicates) R4” value is 70.8%. Moreover, the HitlevelF in assay [2] (setting [12]) is 4.

Source of the values: paper PMC10584170, “Machine learning-based phenotypic imaging to characterise the targetable biology of Plasmodium falciparum male gametocytes for the development of transmission-blocking antimalarials” (PLOS Pathogens, 2023).
